We go through six molecules from US8691861B2, “Prodrugs of inhibitors of plasma kallikrein” (ActiveSite Pharmaceuticals, Inc., priority 2011, dated 2014).

The conditions of series [1]: cited from earlier work.
For series [2] the following is noted: rat models of arthritis; cited from earlier work.
Series [3] can be described thus: Conversion of prodrug in vivo: plasma levels of the active plasma kallikrein inhibitor after oral dosing of the prodrug. The arrangement: species or system Sprague-Dawley rats. As to conditions: rats, 25 mg/kg oral in PEG400. The protocol: Young male Sprague-Dawley rats were orally dosed at 25 mg/kg with the prodrug 1-(4-fluorophenyl)-N-[[4-(N′-hydroxycarbamimidoyl)phenyl]methyl]-2,5-dimethyl-pyrrole-3-carboxamide dissolved in PEG400. Blood was removed at various time intervals via an arterial catheter into a citrated collection tube, and plasma generated by centrifugation. The concentration of the active plasma kallikrein inhibitor N-[(4-carbamimidoylphenyl)methyl]-1-(4-fluorophenyl)-2,5-dimethyl-pyrrole-3-carboxamide in the plasma samples were determined using LC/MS/MS.

The conditions of series [4]: LPS or bacterial induced sepsis in animals; cited from earlier work.
The conditions of series [5]: angiotensin-II-induced; cited from earlier work.
For series [6] the following is noted: diabetic animals; cited from earlier work.
For series [7] the following is noted: rat model of ischemic stroke; cited from earlier work.
For series [8] the following is noted: model of hemorrhagic stroke; cited from earlier work.
For series [9] the following is noted: mouse model of middle cerebral artery occlusion; cited from earlier work.
The conditions of series [10]: cited from earlier work. This is another data set of the same source.

Non-standard residues stand in square brackets, D forms with d. *: point of attachment. CH2Cl = ClC*

In the case of `NC(N)=NCCC[C@@H](N)C(=O)N[C@@H](CCCN=C(N)N)C(=O)N1CCC[C@H]1C(=O)N1C[C@H](O)C[C@H]1C(=O)NCC(=O)N[C@@H](Cc1cccs1)C(=O)N[C@@H](CO)C(=O)N1Cc2ccccc2C[C@@H]1C(=O)N1[C@H](C(=O)N[C@@H](CCCN=C(N)N)C(=O)O)C[C@@H]2CCCC[C@@H]21` [icatibant], the “effectiveness in treating HAE” value in series [1] is recorded as “effective”.

Consider `Cl.NCC1CCC(C(=O)N[C@@H](Cc2ccccc2)C(=O)Nc2ccc(CC(=O)O)cc2)CC1` (stereo partly shown) [PKSI-527], for which the joint swelling entry in series [2] is listed as “reduce”.

Turning to `Cc1cc(C(=O)NCc2ccc(/C(N)=N/O)cc2)c(C)n1-c1ccc(F)cc1` [1-(4-fluorophenyl)-N-[[4-(N′-hydroxycarbamimidoyl)phenyl]methyl]-2,5-dimethyl-pyrrole-3-carboxamide], in series [3], the “absorption from the gastrointestinal tract following oral dosing” value is listed as “absorbed from the gastrointestinal tract” and the “conversion in vivo into the active compound” value is recorded as “effectively converted in vivo”.

Take H-[dP]-Phe-Arg-CH2Cl: the lesions entry in series [4] is “reduce”.

With `N=C(N)c1ccc(CNC(=O)c2cnn(Cc3ccccc3)c2)cc1` [ASP-440], the “elevated systolic blood pressure” value in series [5] is “reduce”. Besides, the “plasma leakage into the retina” value in series [6] is “inhibits”. In series [7], the cerebrovascular edema result was “reduce” and the infarction volume result was “reduce”. Moreover, the “expansion of intracerebral hemorrhage” value in series [8] is “reduce”.

B1: C1-INH: the major endogenous inhibitor of PK (protein, UniProt P05155 23-500, looked up)
Plasma protease C1 inhibitor: NPNATSSSSQDPESLQDRGEGKVATTVISKMLFVEPILEVSSLPTTNSTTNSATKITANTTDEPTTQPTTEPTTQPTIQPTQPTTQLPTDSPTQPTTGSFCPGPVTLCSDLESHSTEAVLGDALVDFSLKLYHAFSAMKKVETNMAFSPFSIASLLTQVLLGAGENTKTNLESILSYPKDFTCVHQALKGFTTKGVTSVSQIFHSPDLAIRDTFVNASRTLYSSSPRVLSNNSDANLELINTWVAKNTNNKISRLLDSLPSDTRLVLLNAIYLSAKWKTTFDPKKTRMEPFHFKNSVIKVPMMNSKKYPVAHFIDQTLKAKVGQLQLSHNLSLVILVPQNLKHRLEDMEQALSPSVFKAIMEKLEMSKFQPTLLTLPRIKVTTSQDMLSIMEKLEFFDFSYDLNLCGLTEDPDLQVSAMQHQTVLELTETGVEAAAASAISVARTLLVFEVQQPFLFVLWDQQHKFPVFMGRVYDPRA
Regarding B1, the infarct size entry in series [9] is recorded as “reduced”. Besides, the lesions result in series [4] was “reduce”. In addition, the “clinical outcome in sepsis patients” value in [10] is given as “Clinical improvement”.
